Values of other authors, collected in patent US8657798B2, “Anti-inflammatory analgesic adhesive patch for external use” (Teikoku Seiyaku Co., Ltd., priority 2010, dated 2014).

Settings: compared with diclofenac sodium

## Diclofenac hydroxyethylpyrrolidine
  water solubility: better water solubility than diclofenac sodium
